Results on 11 compounds are retold here after US10457678B2, “Substituted pyrrolo[2,3-b]pyridines as inhibitors of cellular necroptosis” (Institut National de la Sante et de la Recherche Medicale …, priority 2015, dated 2019).

SMILES strings stand for the structures. “Also recorded” adds a separate entry of the source. Read-outs that look alike come from different tables or passages of the source.

The subject of assay [1] is Jurkat FADD-deficient I 2.1 cell line. Description: Cell-based screening: necroptosis induced by TNF-α in Jurkat FADD-deficient cells, MTS viability assay. Further details: species or system human. The conditions noted are these: for EC50: Homo sapiens, Jurkat FADD-deficient cells, TNF-α 10 ng/ml, 24 hours, MTS viability assay; for inhibition of necroptosis induced by TNF-α: human T lymphocyte, Jurkat FADD deficient cell line. The source says: (§1) TNF-α can induce necroptosis in Jurkat cells (human T lymphocytes) when FADD was deleted. This model was used to screen various libraries of chemical compounds for characterization of new inhibitors of cellular necroptosis. Details on this cell-based assay can be found in Miao and Degterev (Methods Mol. Biol. 2009, 559, 79-93). The Jurkat FADD-deficient I 2.1 cell line used was purchased from ATCC and was maintained in RPMI 1640 medium (Gibco) containing Glutamax and 15% fetal calf serum (Life Technology). Necroptosis was induced by addition of 10 ng/ml of human recombinant TNF-α (Life Technology). Necrostatin-1 (Nec-1, Enzo Life Sciences) was used as model necroptosis inhibitor. Cells were maintained in 75 cm^2 flask and passed every 2 or 3 days. Chemical collections analysed were formatted in 96-well plates with 80 molecules per plates at 10 mM in 100% DMSO. For each collection plate, 2 cell plates were seeded (one necroptosis-induced with TNF-α and the other without TNF-α). Cells were seeded at 20000 cells/well, in 40 μl of medium, in a 96-well clear, flat bottom plate (CytoOne, Starlab) before treatment. Then, 40 μl of medium with or without TNF-α at 25 ng/ml were added to all wells in the corresponding plate. Immediately after TNF-α addition, 20 μl of diluted compound at 50 μM were added to the plates. Final concentration of each chemical compound was 10 μM at 0.1% DMSO. Four positives (Nec-1 at 10 μM final) and four negative (DMSO) controls were used in each plate to validate the assay. Cells were incubated at 37° C., 5% CO2 for 24 hours before performing MTS viability assay, described hereafter. Compounds were diluted before to treat cells. Liquid handling was performed using the Nimbus Microlab liquid handler (Hamilton Robotics) under microbiological safety workbench. The 10 mM compounds were diluted at 50 μM directly in cell medium.

The next assay has as its system L929sAhFas. The assay can be described thus: Necroptosis induced by FasL + zVAD-fmk in L929sAhFas cells. The assay is classed as cell-based. To be noted: Mus musculus. As to the method: (§2) Besides, the EC50 of compound 7, compound 10 and necrostatin-1 (Nec-1) were determined in mouse or human cellular models of necroptosis induced by FasL+zVAD-fmk (a pan-caspase inhibitor), TRAIL+zVAD-fmk+Bp (Birinapant, a Smac mimetics) or TNF, and by using two cytotoxic assays (MTS Cell Proliferation assay or intracellular ATP level).

The next assay deals with HT29. Description: Necroptosis induced by TRAIL + zVAD-fmk + Bp (Birinapant) in HT29 cells. The assay is classed as cell-based, human. The conditions noted are these: for anti-necroptotic effect by inducer (in words, summary of Table 1): TNF-, TRAIL- or FasL-induced necroptosis in mouse or human cellular models; for EC50: Homo sapiens, HT-29, HT29, TRAIL + Zvad + Bp. How it is done: as §2

For another assay, the system named is Jurkat Fadd−/−. The assay can be described thus: Necroptosis induced by TNF in Jurkat Fadd−/− cells (Table 1). The assay is classed as cell-based. To be noted: Homo sapiens.
From the text: as §1, §2

Assay [2] concerns the target T1, Human RIPK1 full length GST-tagged (Homo sapiens, UniProt Q13546).
T1 construct: Human RIPK1 full length GST-tagged was baculovirally expressed in Sf9 cells; GST; made in house; host or cells: Sf9 insect cells (baculovirus, Bac-to-Bac expression system, Invitrogen)
T1 sequence (Q13546 1-671): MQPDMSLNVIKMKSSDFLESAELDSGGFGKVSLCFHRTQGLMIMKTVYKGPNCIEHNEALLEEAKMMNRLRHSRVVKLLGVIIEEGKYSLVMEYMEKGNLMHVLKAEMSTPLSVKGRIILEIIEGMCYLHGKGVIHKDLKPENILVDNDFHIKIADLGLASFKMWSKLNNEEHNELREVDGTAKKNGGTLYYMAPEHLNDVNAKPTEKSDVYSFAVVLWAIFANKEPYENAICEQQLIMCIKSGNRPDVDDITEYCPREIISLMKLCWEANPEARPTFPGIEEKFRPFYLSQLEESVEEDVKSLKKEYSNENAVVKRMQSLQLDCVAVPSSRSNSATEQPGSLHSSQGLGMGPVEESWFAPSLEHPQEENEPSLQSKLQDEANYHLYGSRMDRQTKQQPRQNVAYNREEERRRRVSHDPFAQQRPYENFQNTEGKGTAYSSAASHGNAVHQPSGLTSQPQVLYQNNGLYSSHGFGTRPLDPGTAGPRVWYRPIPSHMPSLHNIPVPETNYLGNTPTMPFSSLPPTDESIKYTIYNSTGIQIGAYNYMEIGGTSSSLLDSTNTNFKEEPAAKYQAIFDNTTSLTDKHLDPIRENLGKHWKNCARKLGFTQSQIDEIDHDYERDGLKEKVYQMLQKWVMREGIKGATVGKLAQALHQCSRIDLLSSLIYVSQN
The assay can be described thus: RIPK1 autophosphorylation assay. The format is biochemical. To be noted: [γ-32P] ATP, radiographic film, FIG. 5. As to the method: RIPK1 Autophosphorylation Assay: Human RIPK1 full length GST-tagged was baculovirally expressed in Sf9 cells according to manufacturer's instructions (Bac-to-Bac expression system, Invitrogen) and purified using gluthation-sepharose beads (GE Healthcare). The elution was made in 50 mM Tris-HCl, pH 8.0 buffer supplemented with 30 mM reduced gluthatione (Sigma). The protocol used to detect the enzymatic activity is adapted from Miao and Degterev (Methods Mol. Biol. 2009, 559, 79-93). Kinase reaction was initiated mixing 5 μl of eluted RIPK1, 5 μl of 3× kinase reaction buffer (5 mM MOPS pH 7.2, 2.5 mM β-glycerophosphate, 4 mM MgCl2, 2.5 mM MnCl2, 1 mM EGTA, 0.4 mM EDTA, 50 μg/ml BSA, 0.05 mM DTT), 2 μl H2O and 3 μl of the tested molecule. The mixture was kept on ice for 10 minutes. During the incubation, the ATP solution was prepared by mixing 5 μl of 3× kinase reaction buffer, 4 μl H2O, 6 μl cold ATP at 150 μM and 2 μCi of [γ-^32P] ATP. Add the ATP solution and the tested inhibitor to the kinase and incubate for 30 minutes at 30° C. To stop the enzymatic reaction, 5 μl of loading buffer were added and solution was heated for 3 minutes at 95° C. 25 μl of each reaction were loaded per well in pre-cast NuPage 12% Bis-Tris gel (Life Technology). Autophosphorylated RIPK1 band was visualized on radiographic film after 6 h exposition at −80° C.

The mark [3] stands for this setting: MTS Cell Proliferation assay, read-out: EC50, MTS.
[4] abbreviates: intracellular ATP level, read-out: EC50, ATP level.

As for `CCOc1ccc(-c2cc3cccn(C(=O)N(CC)CC)c-3n2)cc1` [Compound 7, 2-(4-ethoxyphenyl)-N,N-diethyl-7H-pyrrolo[2,3-b]pyridine-7-carboxamide], the half-maximal effective concentration (EC50) in assay [1] stood at 7 µM; in the assay with L929sAhFas (setting [3]) it was 10 µM; in the assay on L929sAhFas (setting [4]) it was 5 µM; with Jurkat Fadd−/− (setting [3]), 10 µM; with Jurkat Fadd−/− (setting [4]), 9.3 µM. For the same compound, the “inhibition of necroptosis induced by TNF-α” value (from here on “inhibition … by TNF-α”) in assay [1] is recorded as “dose-dependent inhibition”. Besides, the “anti-necroptotic effect by inducer (in words, summary of Table 1)” value with HT29 is recorded as “only inhibits TNF- or FasL-induced necroptosis”.
In the case of `CCOc1ccc(-c2cc3cccnc3n2C(C)=O)cc1` [Compound 10, 1-(2-(4-ethoxyphenyl)-1H-pyrrolo[2,3-b]pyridin-1-yl)ethan-1-one], the EC50 was found to be 1.7 µM in assay [1]; 3.5 µM with L929sAhFas (setting [3]); 5 µM in the assay on L929sAhFas (setting [4]); 4 µM with HT29 (setting [3]); 5 µM in the assay with HT29 (setting [4]); 4 µM in the assay on Jurkat Fadd−/− (setting [3]). Besides, in the assay on Jurkat Fadd−/− (setting [4]), the 50% effective concentration (EC50) came to 2.6 µM. Besides, the “inhibition … by TNF-α” value in assay [1] was “dose-dependent inhibition”. In assay [2], the “inhibition of RIPK1 autophosphorylation (in words)” value was “dose-dependent inhibition; also recorded: inhibits, in a dose-dependent fashion”. In the assay with HT29, the “anti-necroptotic effect by inducer (in words, summary of Table 1)” value is on record as “inhibits TNF-, TRAIL- or FasL-induced necroptosis”.
For the compound `CCOc1ccc(-c2cc3cccnc3n2C(=O)OC(C)(C)C)cc1` [Compound 17, tert-butyl 2-(4-ethoxyphenyl)-1H-pyrrolo[2,3-b]pyridine-1-carboxylate], in assay [1], the concentration giving a half-maximal response (EC50) came to 3 µM and the “inhibition … by TNF-α” value is “dose-dependent inhibition”.
In the same order, the values of `CCOc1ccc(-c2cc3cccn(C(=O)OCc4ccccc4)c-3n2)cc1` [Compound 21, benzyl 2-(4-ethoxyphenyl)-7H-pyrrolo[2,3-b]pyridine-7-carboxylate] are 5 µM and “dose-dependent inhibition”.
For the compound `CCOc1ccc(-c2cc3c(Cl)ccnc3n2C(=O)OC(C)(C)C)cc1` [Compound 26, tert-butyl 4-chloro-2-(4-ethoxyphenyl)-1H-pyrrolo[2,3-b]pyridine-1-carboxylate], in assay [1], a half-maximal effect (EC50) was put at 2.4 µM and the “inhibition … by TNF-α” value is on record as “dose-dependent inhibition”.
For `CCOc1ccc(-c2cc3cccnc3n2C(=O)OCC(Cl)(Cl)Cl)cc1` [Compound 32, 2,2,2-trichloroethyl 2-(4-ethoxyphenyl)-1H-pyrrolo[2,3-b]pyridine-1-carboxylate], in assay [1], the EC50 stood at 2.5 µM and the “inhibition … by TNF-α” value is listed as “dose-dependent inhibition”.
In the same order, the values of `CCOc1ccc(-c2cc3cccnc3n2C(=O)N2CCN(S(C)(=O)=O)C2=O)cc1` [Compound 33, 1-(2-(4-ethoxyphenyl)-1H-pyrrolo[2,3-b]pyridine-1-carbonyl)-3-(methylsulfonyl) imidazolidin-2-one] are 1 µM and “dose-dependent inhibition”.
Consider `CCOc1ccc(-c2cc3cccn(C(=O)N(C(C)C)C(C)C)c-3n2)cc1` [Compound 34, 2-(4-ethoxyphenyl)-N,N-diisopropyl-7H-pyrrolo[2,3-b]pyridine-7-carboxamide], for which, in assay [1], the EC50 amounted to 2 µM and the “inhibition … by TNF-α” value was “dose-dependent inhibition”.
In the same order, the values of `CCOc1ccc(-c2cc3cccn(C(=O)N4CCCC4)c-3n2)cc1` [Compound 35, (2-(4-ethoxyphenyl)-7H-pyrrolo[2,3-b]pyridin-7-yl)(pyrrolidin-1-yl)methanone] are 3.5 µM and “dose-dependent inhibition”.
The matching figures for `CCOc1ccc(-c2cc3cccn(C(=O)N4CCN(C)CC4)c-3n2)cc1` [Compound 36, (2-(4-ethoxyphenyl)-7H-pyrrolo[2,3-b]pyridin-7-yl) (4-methylpiperazin-1-yl)methanone]: 1.05 µM and “dose-dependent inhibition”.
On to `CN1C(=O)C(Cc2c[nH]c3ccccc23)NC1=S` (stereo not drawn) [Nec-1, necrostatin-1, reference compound], for which the half-maximal effective concentration (EC50) was 10 µM in the assay on L929sAhFas (setting [3]); 10 µM in the assay on L929sAhFas (setting [4]); 1.2 µM with HT29 (setting [3]); 2 µM in the assay with HT29 (setting [4]); 1.3 µM with Jurkat Fadd−/− (setting [3]); 1.3 µM in the assay with Jurkat Fadd−/− (setting [4]).
